From PubChem BioAssay (NCI) come the findings set out here.

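Values below derive from 48-hour exposures of cells grown in 96-well plates, with endpoints linearly interpolated between the two concentrations bracketing the appropriate inhibition level. GI50 is the concentration that inhibits growth by half. TGI: total growth inhibition.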

Some test systems named below: HCT-116 colon; UACC-257 melanoma; OVCAR-4 ovarian; CCRF-CEM leukemia; T-47D breast; K-562 leukemia; NCI-H23 lung; UACC-62 melanoma; U251 CNS; SN12C renal.
Common to all, as to experiment: DTP human tumour cell line panel, 48 h

For the compound `CC1(C)N=C(N)N=C(N)N1c1ccc(OCCCNC(=O)Nc2cccc(S(=O)(=O)F)c2)c(Cl)c1`, the GI50 (usually the concentration giving 50% growth inhibition) in the assay on HCT-116 colon is 636 nM; in the assay with UACC-257 melanoma it was more than 100000 nM; with OVCAR-4 ovarian, more than 100000 nM; in the assay with CCRF-CEM leukemia it was 3620 nM; in the assay with T-47D breast it was 35100 nM; in the assay on K-562 leukemia, 598 nM. Besides, the values for the GI50 in the assay on NCI-H23 lung, in the assay with UACC-62 melanoma and with U251 CNS were 3650 nM, 1430 nM and 777 nM, respectively. For the same compound, the TGI with HCT-116 colon, in the assay on UACC-257 melanoma, with OVCAR-4 ovarian, in the assay with CCRF-CEM leukemia, in the assay with T-47D breast and in the assay with K-562 leukemia was more than 100000 nM throughout. In addition, the concentration for total growth inhibition (TGI) in the assay on NCI-H23 lung, in the assay with UACC-62 melanoma and in the assay with U251 CNS was more than 100000 nM each time.

In the case of `Clc1cc(Cl)c(OCCCCCCN2CCNCC2)c(Cl)c1`, the GI50 is 1670 nM in the assay with HCT-116 colon; 2770 nM in the assay on UACC-257 melanoma; 3480 nM with OVCAR-4 ovarian; 1890 nM in the assay with CCRF-CEM leukemia; 2010 nM in the assay on T-47D breast; 1920 nM in the assay on K-562 leukemia. Also, the GI50 with SN12C renal was 6420 nM; with NCI-H23 lung, 7310 nM; in the assay on UACC-62 melanoma it was 2090 nM; in the assay on U251 CNS, 2300 nM. Moreover, the concentration for total growth inhibition (TGI) – broadly, the concentration giving total growth inhibition – with HCT-116 colon amounted to 3190 nM; in the assay with UACC-257 melanoma, 7400 nM; in the assay with OVCAR-4 ovarian it was 15100 nM; with CCRF-CEM leukemia it was 4310 nM; in the assay on T-47D breast, 5060 nM; in the assay on K-562 leukemia, 4240 nM. Also, the TGI with SN12C renal was 23600 nM; in the assay on NCI-H23 lung, 21800 nM; with UACC-62 melanoma, 4270 nM; in the assay with U251 CNS it was 6090 nM.

With `Cc1ccc(C=C2C(Cl)=C(Cl)C(Cl)=C2Cl)cc1`, the GI50 is 358 nM with HCT-116 colon; 1580 nM in the assay on UACC-257 melanoma; 1000 nM in the assay with OVCAR-4 ovarian; 167 nM in the assay on CCRF-CEM leukemia; 1020 nM in the assay on T-47D breast; 202 nM with K-562 leukemia. Besides, the GI50 was 832 nM with SN12C renal, 533 nM with NCI-H23 lung, 784 nM in the assay on UACC-62 melanoma and 664 nM with U251 CNS. The TGI turned out to be 1040 nM in the assay on HCT-116 colon; 4320 nM with UACC-257 melanoma; 2750 nM in the assay with OVCAR-4 ovarian; 490 nM in the assay on CCRF-CEM leukemia; 2790 nM in the assay on T-47D breast; 522 nM with K-562 leukemia. Besides, the TGI amounted to 3020 nM in the assay on SN12C renal, 2500 nM with NCI-H23 lung, 2740 nM with UACC-62 melanoma and 1960 nM with U251 CNS.

Consider `COc1ccc(NC2=C(I)C(=O)c3ncccc3C2=O)cc1`, for which the GI50 in the assay with HCT-116 colon was 494 nM; with UACC-257 melanoma, 1350 nM; in the assay with OVCAR-4 ovarian, 1120 nM; in the assay on CCRF-CEM leukemia, 2040 nM; with T-47D breast it was 1590 nM; in the assay on K-562 leukemia, 533 nM. For the same compound, the GI50 with SN12C renal is 1050 nM; with NCI-H23 lung it was 327 nM; with UACC-62 melanoma it was 1660 nM; in the assay on U251 CNS, 673 nM. The TGI with HCT-116 colon turned out to be 2510 nM; with UACC-257 melanoma it was 2720 nM; with OVCAR-4 ovarian it was 2350 nM; in the assay with CCRF-CEM leukemia, 6550 nM; with T-47D breast, 4170 nM; with K-562 leukemia, 5190 nM. Further, the TGI came to 2270 nM in the assay with SN12C renal, 1680 nM in the assay with NCI-H23 lung, 3400 nM in the assay on UACC-62 melanoma and 2120 nM in the assay on U251 CNS.

As to `COc1cc(CNCCN2C(=O)c3ccc4c5c(ccc(c35)C2=O)C(=O)N(CCNCc2cc(OC)c(OC)c(OC)c2)C4=O)cc(OC)c1OC`, the concentration for 50% growth inhibition (GI50) in the assay with HCT-116 colon is 136 nM; in the assay on OVCAR-4 ovarian, 122 nM; in the assay on T-47D breast, 189 nM; with K-562 leukemia, 147 nM; with SN12C renal, 622 nM; in the assay with NCI-H23 lung, 794 nM. The GI50 with UACC-62 melanoma was 552 nM; with U251 CNS, 182 nM. For the same compound, the TGI came to 428 nM in the assay on HCT-116 colon; 398 nM with OVCAR-4 ovarian; 718 nM with T-47D breast; 413 nM in the assay with K-562 leukemia; 1380 nM in the assay with SN12C renal; 1780 nM with NCI-H23 lung. Further, the results for the TGI with UACC-62 melanoma and with U251 CNS were 1360 nM and 684 nM, respectively.

Regarding `O=C(c1ccccc1Cl)n1oc2ccccc2c1=O`, the TGI was more than 100000 nM with HCT-116 colon; more than 100000 nM in the assay with UACC-257 melanoma; more than 100000 nM in the assay with OVCAR-4 ovarian; 74000 nM with CCRF-CEM leukemia; more than 100000 nM with T-47D breast; more than 100000 nM in the assay on K-562 leukemia. For the same compound, the TGI with SN12C renal, with UACC-62 melanoma and with U251 CNS was more than 100000 nM each time.

Consider `COc1cc(/C=C/c2cc(/C=C/c3ccc(O)c(OC)c3)n(C(=O)Nc3ccccc3Cl)n2)ccc1O`, for which the GI50 with UACC-257 melanoma is 1020 nM; with OVCAR-4 ovarian, 722 nM; in the assay on CCRF-CEM leukemia, 216 nM; in the assay with T-47D breast it was 821 nM; in the assay with K-562 leukemia it was 301 nM; in the assay on SN12C renal, 366 nM. The GI50 in the assay on NCI-H23 lung is 330 nM; with UACC-62 melanoma, 425 nM; with U251 CNS it was 384 nM. In addition, the concentration for total growth inhibition (TGI) amounted to 3710 nM in the assay with UACC-257 melanoma; 9090 nM in the assay with OVCAR-4 ovarian; 844 nM in the assay on CCRF-CEM leukemia; 2790 nM with T-47D breast; 3110 nM in the assay with K-562 leukemia; 5770 nM in the assay with SN12C renal. Also, the TGI stood at 2460 nM in the assay with NCI-H23 lung, 2500 nM in the assay with UACC-62 melanoma and 1510 nM with U251 CNS.

As to `CCCCNS(=O)(=O)c1n[nH]c(=O)[nH]c1=O`, the TGI in the assay on HCT-116 colon was more than 100000 nM; in the assay with OVCAR-4 ovarian, more than 100000 nM; with CCRF-CEM leukemia, 35700 nM; in the assay with T-47D breast it was more than 100000 nM; in the assay with K-562 leukemia, more than 100000 nM; in the assay with SN12C renal, more than 100000 nM. For the same compound, the TGI in the assay on NCI-H23 lung, with UACC-62 melanoma and with U251 CNS was more than 100000 nM throughout.
